These molecules were tested on Mycobacterium tuberculosis H37Rv growth inhibition, no glycerol (assay: Mycobacterium tuberculosis H37Rv growth inhibition, no glycerol, confirmatory dose response (AID 449764;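 further: growth read after 7 days of incubation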)). Details: measured here: IC90 growth inhibition.

Compared with Cc1cc(C)cc(NC(=O)CCc2ccc(C)o2)c1, CCOC(=O)c1c(-c2ccc(OC)cc2)csc1NC(=O)CNCc1ccco1 is lower in IC90: > 100 µM for the first, 25.5 µM for the second.

Going from CCOC(=O)C(C)Sc1nc(-c2cccs2)ccc1C#N (configuration not stated) to CCOC(=O)c1cnc(SC2CCc3ccccc3C2=O)nc1N (configuration not stated), the IC90 rises from 50.3 µM to 96.5 µM (1.9-fold).

CC(C)(C)c1ccc(-c2nc(-c3ccncc3)no2)cc1 and CCN(Cc1ccncc1)Cc1nc(-c2ccc(C(=O)OC)cc2)no1 are within 1.5-fold of each other in IC90: 47.6 µM for the first, 53.6 µM for the second.

Cc1cccc(C(=O)OCC(=O)N2CCc3ccccc3C2)c1O and CCOC(=O)c1cc(-c2ccc(N3CCOCC3)cc2)nn1-c1ccccc1 cannot be ordered by IC90: > 25 µM for the first, 58.1 µM for the second.

Going from COc1ccc(NC(=O)CSc2nnc(-c3ccccn3)n2N)cc1Cl to COC(=O)C(C)Oc1ccc(-c2nccc(-c3ccccn3)n2)cc1 (configuration not stated), the IC90 falls from > 100 µM to 6.95 µM.

First: CCOc1cccc2cc(C(=O)Nc3nccs3)c(=O)oc12
Second: CCOC(=O)COc1cc([N+](=O)[O-])cc2cccnc12
The IC90 of the first is 3-fold lower: 15.3 µM for the first, 46.4 µM for the second.

Going from C(C#CCCCCCCCCC[n+]1ccccc1)#CCCCCCCCCC[n+]1ccccc1 to c1ccc(-c2ccccc2OCCCCn2ccnc2)cc1, the IC90 rises from 6.85 µM to 26.9 µM (3.9-fold).

First: O=C(CSc1nn(-c2ccc(F)cc2)c(=S)s1)NCC1CCCO1 (configuration not stated)
Second: O=C(CSc1nnc(-c2cccs2)o1)NCC1CN(Cc2ccccc2)CCO1 (configuration not stated)
The IC90 of the first is higher: > 100 µM for the first, 25.5 µM for the second.

Going from O=C(Nc1cc(C(F)(F)F)ccc1-n1cncn1)c1ccc([N+](=O)[O-])o1 to O=C(Nc1ccc(OC(F)(F)F)cc1)c1ccc2c(c1)no[n+]2[O-], the IC90 falls from 54.2 µM to 0.32 µM (170-fold).

First: COc1ccc(/C=C/CN2CCC(CO)(Cc3ccccc3Cl)CC2)cc1
Second: CC(c1nc2ccccc2c(=O)[nH]1)N(C)CCOc1ccc(Cl)cc1 (configuration not stated)
The IC90 of the first is 2-fold lower: 27.5 µM for the first, 55.5 µM for the second.

Compared with CCn1c(=O)c(CCC(=O)N2CCN(c3ccccn3)CC2)c(C)c2c(C)nn(-c3cccc(C)c3)c21, Cc1cc(C)c2c(CN3CCN(Cc4ccccc4)CC3)cc(=O)oc2c1C is lower in IC90: > 100 µM for the first, 55.2 µM for the second.

First: CN(C)CCNc1ncnc2c1sc1nc(-c3ccccc3)c3c(c12)CCCC3
Second: Cc1nn2c(NCc3ccccn3)cc(C(C)C)nc2c1-c1ccccc1
The IC90 of the first is 7.5-fold higher: 24.2 µM for the first, 3.23 µM for the second.

Going from C=CCc1c(C)nc(C)nc1N/N=C/c1ccccc1O to COc1cccc(/C=N/Nc2nc(Nc3ccccc3)nc(-n3nc(C)cc3C)n2)c1O, the IC90 falls from 8.85 µM to 0.25 µM (35-fold).

Compared with C=C(C)C(=O)OCC(O)COc1ccc(C(C)(C)c2ccc(OCC(O)COC(=O)C(=C)C)cc2)cc1 (configuration not stated), COc1ccc(OCCCC(=O)OC(C)C(=O)Nc2ccccc2[N+](=O)[O-])cc1 (configuration not stated) is higher in IC90: 49.1 µM for the first, > 100 µM for the second.

COC(=O)c1cc(/C=C/c2ccccc2)on1 and CCCCC(=O)/C=C/n1c(=S)oc2ccccc21 cannot be ordered by IC90: > 100 µM for the first, > 100 µM for the second.

Compared with COc1ccccc1C1=NOC(COC(=O)c2ccc([N+](=O)[O-])cc2)C1 (configuration not stated), COc1ccccc1OC(=O)c1ccc(S(=O)(=O)N(C)C)cc1 is lower in IC90: > 100 µM for the first, 35.8 µM for the second.

Compared with COC(=O)CCCCC1SCC(NC(=O)c2ccccc2)C1=O (configuration not stated), O=C(CNC(=O)c1ccco1)OCc1ccc(C(=O)Oc2ccccc2)cc1 is 1.9-fold lower in IC90: 49.8 µM for the first, 26.6 µM for the second.

Going from CNc1ccc2nc3ccccc3[n+](C)c2c1 to O=S(=O)(Nc1ccc2[nH]ncc2c1)c1ccccc1Cl, the IC90 rises from 1.68 µM to 17.1 µM (10-fold).

Compared with Cc1nc(N)nc(N)c1CCCc1ccc(Cl)c(Cl)c1, CCc1ccc(/C(C)=N/Nc2cc(Cl)nc(C)n2)cc1 is lower in IC90: > 100 µM for the first, 59.5 µM for the second.

Compared with Cc1ccc2c(c1)c(/C=C/c1cc[n+](C)cc1)c(C)n2C, Cc1ccc(C2=NN(C)c3nc4ccccc4n3C2)cc1 is higher in IC90: 6.61 µM for the first, > 100 µM for the second.

First: c1ccc(CN2CCC(Nc3nc(-c4ccccc4)nc4ccccc34)CC2)cc1
Second: CN1CCN(Cc2nc3ccccc3c(=O)n2Cc2nc(-c3ccc4ccccc4c3)cs2)CC1
The IC90 of the first is 1.7-fold lower: 16.6 µM for the first, 28.5 µM for the second.

O=[N+]([O-])c1ccc(-c2nc(-c3cccs3)c(-c3cccs3)[nH]2)cc1 and CCOc1ccc(-c2csc(/C(C#N)=C\c3ccc(O)c([N+](=O)[O-])c3)n2)cc1 cannot be ordered by IC90: > 100 µM for the first, > 100 µM for the second.

CCOC(=O)c1c(C)[nH]c(N=Nc2ccc(OC)cc2)c1C and COc1ccc(N=c2ssnc2Cl)cc1 cannot be ordered by IC90: > 25 µM for the first, > 100 µM for the second.

First: O=[N+]([O-])c1cc(-c2ccc(/C=N\n3cnnc3)o2)cc([N+](=O)[O-])c1
Second: COc1ccccc1-n1cc2c([N+](=O)[O-])cc([N+](=O)[O-])cc2n1
The IC90 of the first is 8.5-fold higher: 49.9 µM for the first, 5.89 µM for the second.

Cc1ccc(NC(=O)C2=C(O)CCn3c2nc2ccccc23)cc1 and Cc1c(C(=O)Nc2nc3ccccc3[nH]2)oc2c(Cl)cccc12 cannot be ordered by IC90: > 100 µM for the first, > 100 µM for the second.

First: Cc1cccc(/C=c2\s/c(=C\C(=O)C(C)(C)C)[nH]c2=O)c1
Second: Cc1ccc(S(=O)(=O)Nc2cccc3ncccc23)s1
The IC90 of the first is 4.8-fold higher: 31.7 µM for the first, 6.54 µM for the second.

CC(=O)c1ccc(-n2cc(-c3ccc(C(C)(C)C)cc3)[n+]3c2SCCC3)cc1 and COc1ccc(-n2c(-c3ccc(Cl)cc3)c[n+]3c2CCc2ccccc2-3)cc1 are within 1.5-fold of each other in IC90: 26.9 µM for the first, 26.8 µM for the second.

Compared with CN(C)c1ccc(O)c2c1CC1CC3[C@@H](N(C)C)C(=O)C(C(N)=O)C(=O)[C@]3(O)C(=O)C1C2=O (some centres not stated), CC1CCCN(Cc2c(O)ccc3c(=O)c(-c4nc5ccccc5s4)c(N)oc23)C1 (configuration not stated) is 5.3-fold higher in IC90: 3.99 µM for the first, 21 µM for the second.

COC(=O)C(C)Oc1cc(C)ccc1COc1ccc(-n2nc(C)n(C(F)F)c2=O)cc1 (configuration not stated) and O=C(c1ccccc1)c1nn(-c2ccc(Cl)cc2)c(=O)cc1C(F)(F)F are within 1.5-fold of each other in IC90: 27.5 µM for the first, 31.1 µM for the second.

First: Nc1ccc(-c2nc3nc(N)nc(N)c3nc2-c2ccc(N)cc2)cc1
Second: c1ccc(-c2nccc(-c3ccc(-n4cnc5ccccc54)cc3)n2)nc1
The IC90 of the first is higher: > 100 µM for the first, 23.7 µM for the second.

Compared with Cc1nc(N2CCC(C)CC2)c2oc3ccccc3c2n1, CC1CCN(c2nc(Cl)nc(Nc3ccc([N+](=O)[O-])cc3)n2)CC1 is higher in IC90: 30.3 µM for the first, > 100 µM for the second.

First: Cc1cc(OC(=O)c2cccs2)c2c3c(c(=O)oc2c1)CCCC3
Second: Cc1nc2sccn2c(=O)c1CCN1CCC(=C(c2ccccc2)c2ccc(F)cc2)CC1
The IC90 of the first is 5.8-fold lower: 8.9 µM for the first, 51.2 µM for the second.

Compared with CCO[C@H]1OC(C(=O)NCc2nc3ccccc3[nH]2)=C[C@@H](c2csc3ccccc23)[C@@H]1CCCO, O=[N+]([O-])c1ccc(C2Oc3ccccc3C3CC(c4ccccc4)=NN32)s1 (configuration not stated) is 5.2-fold lower in IC90: 49.2 µM for the first, 9.52 µM for the second.

Going from C/C(=C\C(=S)Nc1ccccc1)Nc1ccc2ccccc2c1 to COc1ccc(-c2c(C#N)c(SCC(=O)c3cc4ccccc4oc3=O)nc(C)c2C(=O)Nc2ccccc2)cc1, the IC90 rises from 50.8 µM to > 100 µM.

Going from CC(C)CCC[C@@H](C)[C@H]1CC[C@H]2[C@@H]3C(=O)C=C4C[C@@H](O)CC[C@]4(C)[C@H]3CC[C@]12C to Cc1nc(SCC(=O)NC2CCCCC2)[nH]c(=O)c1C, the IC90 falls from 62.9 µM to 0.57 µM (110-fold).

First: COc1ccc(N=c2cc(-c3ccc(O)cc3)oc3ccccc23)cc1
Second: O=C1C=C(c2ccc3[nH]ccc3c2)C[C@@H](c2ccc(Cl)cc2)C1
The IC90 of the first is lower: 26.5 µM for the first, > 100 µM for the second.

Going from CCC(C)NC(=O)c1cn(CC)c2cc(N3CCN(C(=O)c4ccco4)CC3)c(F)cc2c1=O (configuration not stated) to CCCc1ccc(NC(=O)C2CCN(c3cnccn3)CC2)cc1, the IC90 rises from 29.7 µM to 82.7 µM (2.8-fold).

CCc1ccc2nc(N(CCCN(C)C)C(=O)c3ccc(S(=O)(=O)N4CCCc5ccccc54)cc3)sc2c1 and CCc1nnc(NS(=O)(=O)c2ccc(N/C=C\C(=O)c3cccc(OC)c3)cc2)s1 are within 1.5-fold of each other in IC90: 41 µM for the first, 53 µM for the second.

First: COc1cc(NC(=O)c2cnc(N)s2)cc(C(=O)Nc2cccc(C(F)(F)F)c2)c1
Second: Cc1cc(C)n(-c2cc(C(C)(C)C)nc3c(-c4ccccc4)cnn23)n1
The IC90 of the first is higher: > 100 µM for the first, 47.3 µM for the second.

First: C/C(=N\NC(N)=S)c1ccc(Cl)s1
Second: Cc1cc2nc(/N=C(\N)NC(=O)C(C)C)nc(C)c2cc1C
The IC90 of the first is lower: 23.4 µM for the first, > 100 µM for the second.

First: COc1ccc(/C=C2\CCC/C(=C\C=N\N(C)C)C2=O)cc1
Second: COC(=O)CCc1nc2c(C#N)c(-c3ccc(Cl)cc3)ccn2n1
The IC90 of the first is 3.4-fold higher: 17.8 µM for the first, 5.22 µM for the second.

CC(C)(C)c1nn(-c2ccccc2)c2[nH]c(=O)c(CNCc3ccc4c(c3)OCO4)cc12 and CN1/C(=C\C(=O)COC(=O)c2ccc([N+](=O)[O-])o2)C(C)(C)c2ccccc21 are within 1.5-fold of each other in IC90: 34.4 µM for the first, 30.3 µM for the second.

First: O=C(Oc1ccccc1)c1ccccc1OS(=O)(=O)c1ccccc1
Second: O=C1/C(=N\S(=O)(=O)c2cccs2)C([n+]2ccc(CCCc3ccccc3)cc2)=C([O-])c2ccccc21
The IC90 of the first is 1.8-fold lower: 14.1 µM for the first, 25.7 µM for the second.

With Clc1ccc(Nc2ccc(-n3ccnc3)nn2)cc1Cl the IC90 was 24.8 µM.
